In the supplement of paper PMC10307832:

What was measured:
Assay in all cases: relative viability (nuclei count vs DMSO), 5 days (fraction); higher = more cells survive
KIN001-266 + AZD7762 = compound: CCN1CCC(CC1)N2C=C(N=N2)CNC3=CC4=C(C(=CN=C4C(=C3)Cl)C#N)NC5=CC(=C(C=C5)F)Cl [KIN001-266] + NC(=O)Nc1cc(-c2cccc(F)c2)sc1C(=O)N[C@H]1CCCNC1 [AZD7762] (partner 0.2 µM)
How it was run: (§1)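 Each reported value is a median over duplicate plates. It expresses relative viability: treated-well nuclei count divided by vehicle-well nuclei count. Lung cancer cell lines in 1536-well plates were dosed by pin tool a day after seeding, alone with one drug or with a fixed anchor-drug dose plus five library-drug doses (not always all listed) in √10 steps, and nuclei were counted after 5 days.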

KIN001-266 + Pemetrexed = compound: CCN1CCC(CC1)N2C=C(N=N2)CNC3=CC4=C(C(=CN=C4C(=C3)Cl)C#N)NC5=CC(=C(C=C5)F)Cl [KIN001-266] + Nc1nc2[nH]cc(CCc3ccc(C(=O)N[C@@H](CCC(=O)O)C(=O)O)cc3)c2c(=O)[nH]1 [Pemetrexed] (partner 0.2 µM)
How it was run: as §1

KIN001-266 + OSI-027 = compound: CCN1CCC(CC1)N2C=C(N=N2)CNC3=CC4=C(C(=CN=C4C(=C3)Cl)C#N)NC5=CC(=C(C=C5)F)Cl [KIN001-266] + COc1cccc2cc(-c3nc([C@H]4CC[C@H](C(=O)O)CC4)n4ncnc(N)c34)[nH]c12 [OSI-027] (partner 0.5 µM)
How it was run: as §1

KIN001-266 + Foretinib = compound: CCN1CCC(CC1)N2C=C(N=N2)CNC3=CC4=C(C(=CN=C4C(=C3)Cl)C#N)NC5=CC(=C(C=C5)F)Cl [KIN001-266] + COc1cc2c(Oc3ccc(NC(=O)C4(C(=O)Nc5ccc(F)cc5)CC4)cc3F)ccnc2cc1OCCCN1CCOCC1 [Foretinib] (partner 0.25 µM)
How it was run: as §1

Row | Cell Line | relative viability (KIN001-266 + AZD7762; first compound 0.08 µM) | relative viability (KIN001-266 + AZD7762; first compound 0.253 µM) | relative viability (KIN001-266 + AZD7762; first compound 0.8 µM) | relative viability (KIN001-266 + AZD7762; first compound 2.53 µM) | relative viability (KIN001-266 + AZD7762; first compound 8 µM) | relative viability (KIN001-266 + Pemetrexed; first compound 0.08 µM) | relative viability (KIN001-266 + Pemetrexed; first compound 0.253 µM) | relative viability (KIN001-266 + Pemetrexed; first compound 0.8 µM) | relative viability (KIN001-266 + Pemetrexed; first compound 2.53 µM) | relative viability (KIN001-266 + Pemetrexed; first compound 8 µM) | relative viability (KIN001-266 + OSI-027; first compound 0.08 µM) | relative viability (KIN001-266 + OSI-027; first compound 0.253 µM) | relative viability (KIN001-266 + OSI-027; first compound 0.8 µM) | relative viability (KIN001-266 + OSI-027; first compound 2.53 µM) | relative viability (KIN001-266 + OSI-027; first compound 8 µM) | relative viability (KIN001-266 + Foretinib; first compound 0.08 µM) | relative viability (KIN001-266 + Foretinib; first compound 0.253 µM) | relative viability (KIN001-266 + Foretinib; first compound 0.8 µM) | relative viability (KIN001-266 + Foretinib; first compound 2.53 µM) | relative viability (KIN001-266 + Foretinib; first compound 8 µM)
1 | HCC-827 | 0.28 | 0.224 | 0.131 | 0.215 | 0.196 | 0.264 | 0.259 | 0.166 | 0.214 | 0.23 | 0.682 | 0.787 | 0.495 | 0.734 | 0.661 | 1.04 | 1.09 | 0.944 | 0.907 | 0.809
2 | HCC-78 | 0.654 | 0.603 | 0.469 | 0.619 | 0.694 | 0.874 | 0.832 | 0.872 | 0.873 | 0.91 | 0.34 | 0.39 | – | 0.308 | 0.37 | 0.529 | 0.588 | – | 0.575 | 0.527
3 | NCI-H2085 | 0.971 | 1.03 | 0.847 | 0.962 | 0.977 | 0.896 | 0.884 | 0.738 | 0.908 | 0.798 | 0.808 | 0.835 | 0.582 | 0.759 | 0.416 | 1.06 | 1.01 | 0.731 | 0.939 | 0.954
4 | PC-14 | 0.365 | 0.405 | 0.315 | 0.355 | 0.3 | 0.161 | 0.133 | 0.164 | 0.113 | 0.186 | 0.836 | 0.981 | – | 0.67 | 0.152 | 0.907 | 1.04 | 0.743 | 0.979 | 0.503
5 | HCC-44 | 1.04 | 1.01 | 0.989 | 0.969 | 1.05 | 0.678 | 0.651 | 0.607 | 0.592 | 0.642 | 0.5 | 0.664 | 0.605 | 0.441 | 0.593 | – | – | – | – | –
6 | NCI-H2228 | – | – | – | – | – | 0.329 | 0.325 | 0.35 | 0.322 | 0.352 | 0.623 | 0.428 | 0.606 | 0.462 | 0.34 | 0.76 | 0.733 | 0.82 | 0.89 | 0.602
7 | ABC-1 | 0.991 | 0.856 | 0.745 | 0.761 | 0.837 | – | – | – | – | – | 0.649 | 0.436 | 0.622 | 0.392 | 0.375 | 1.02 | 1.12 | 1.1 | 1.08 | 0.873
8 | COR-L23 | – | – | – | – | – | 0.204 | 0.219 | 0.206 | 0.191 | 0.209 | 0.851 | 0.788 | 0.895 | 0.657 | 0.582 | 0.905 | 0.944 | 0.869 | 0.933 | 0.776
9 | NCI-H661 | – | – | – | – | – | 0.913 | 0.946 | 0.932 | 0.856 | 0.741 | 0.693 | 0.745 | 0.723 | 0.627 | 0.514 | 1.02 | 1 | 1.03 | 0.954 | 0.946
10 | UMC-11 | – | – | – | – | – | 0.773 | 0.728 | 0.757 | 0.757 | 0.707 | 0.426 | 0.485 | 0.511 | 0.455 | 0.367 | 1.08 | 1.07 | 1.12 | 0.945 | 0.684
11 | NCI-H1650 | – | – | – | – | – | 0.371 | 0.409 | 0.412 | 0.338 | 0.36 | 0.872 | 0.786 | 0.507 | 0.397 | 0.337 | 1.25 | 0.951 | 0.947 | 0.773 | 0.476
12 | EBC-1 | – | – | – | – | – | – | – | – | – | – | – | – | – | – | – | 0.0963 | 0.1 | 0.105 | 0.128 | 0.117
13 | SK-LU-1 | – | – | – | – | – | 1.03 | 1 | 1.06 | 0.962 | 0.714 | 0.358 | 0.307 | 0.403 | 0.346 | 0.26 | 0.844 | 0.824 | 0.84 | 0.814 | 0.486
14 | SK-MES-1 | – | – | – | – | – | 0.873 | 0.912 | 0.903 | 0.833 | 0.79 | 0.694 | 0.676 | 0.575 | 0.573 | 0.474 | 0.845 | 0.884 | 0.828 | 0.885 | 0.828
15 | NCI-H1792 | 0.825 | 0.66 | 0.738 | 0.902 | 0.516 | 0.882 | 0.9 | 0.81 | 0.757 | 0.857 | 0.772 | 0.711 | 0.729 | 0.732 | 0.691 | – | – | – | – | –
16 | SW 1573 | – | – | – | – | – | 0.809 | 0.792 | 0.94 | 0.713 | 0.751 | 0.778 | 0.627 | 0.616 | 0.515 | 0.513 | 0.989 | 0.787 | 1.02 | 0.915 | 0.855
17 | A549 | – | – | – | – | – | – | – | – | – | – | – | – | – | – | – | 0.95 | 0.854 | 1.04 | 0.87 | 0.926
18 | NCI-H1703 | – | – | – | – | 0.112 | – | – | – | – | – | – | – | – | – | – | 0.367 | – | 0.37 | 0.359 | 0.366
19 | NCI-H520 | – | – | – | – | – | 0.709 | 0.714 | 0.671 | 0.565 | 0.65 | 0.232 | 0.351 | 0.278 | 0.235 | 0.297 | 0.67 | 0.668 | 0.69 | 0.487 | 0.638
20 | NCI-H1563 | – | – | – | – | – | 0.885 | 0.714 | 0.865 | 0.793 | 0.914 | 0.794 | 0.745 | 0.875 | 0.758 | 0.756 | 0.925 | 0.862 | 0.941 | 0.985 | 0.904
21 | NCI-H2009 | – | – | – | – | – | 1.03 | 1.04 | 1.01 | 0.996 | 0.903 | 0.711 | 0.686 | 0.744 | 0.493 | 0.41 | 1.15 | 1.16 | 1.28 | 1.23 | 1.03
